Among the data in patent US10246429B2, “Vinyl fluoride cyclopropyl fused thiazin-2-amine compounds as beta-secretase inhibitors and methods of use” (AMGEN INC., priority 2015, dated 2019) are IC50 values, retold here.

Test [1] has as its target T1, BACE1 (Homo sapiens (Human), UniProt P56817). Put plainly: In vitro enzymatic BACE1 FRET assay. The format is biochemical. The settings on record: read-out: IC50 IP (μM) BACE1 Enzyme.
Target sequence in this assay (P56817 46-501): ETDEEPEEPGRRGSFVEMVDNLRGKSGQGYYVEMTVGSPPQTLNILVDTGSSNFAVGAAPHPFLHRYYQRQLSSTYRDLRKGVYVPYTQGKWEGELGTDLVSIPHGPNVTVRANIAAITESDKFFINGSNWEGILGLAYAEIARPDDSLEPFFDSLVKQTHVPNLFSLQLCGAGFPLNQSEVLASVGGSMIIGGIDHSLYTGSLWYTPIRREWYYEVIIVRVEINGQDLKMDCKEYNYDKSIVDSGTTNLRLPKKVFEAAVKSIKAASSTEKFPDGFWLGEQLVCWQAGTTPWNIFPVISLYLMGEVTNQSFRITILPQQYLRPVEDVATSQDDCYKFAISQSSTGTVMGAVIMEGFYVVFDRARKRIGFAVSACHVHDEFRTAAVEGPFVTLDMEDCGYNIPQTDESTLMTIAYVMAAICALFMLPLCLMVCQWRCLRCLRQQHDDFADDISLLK
From the text: (§1) In Vitro Enzymatic BACE1 and BACE2 FRET (Fluorescence Resonance Energy Transfer) Assays (Enzyme Assay Data in Table 1)
Test [2] deals with T1, BACE1. As to the kind of experiment: BACE1 cell assay. The format is cell-based.
Target sequence in this assay (P56817 46-501, species assumed): as the sequence (P56817 46-501) above
The target in test [3] is BACE2 (Homo sapiens (Human), UniProt Q9Y5Z0). As to the kind of experiment: In vitro enzymatic BACE2 FRET assay. The format is biochemical. The settings on record: read-out: IC50 IP (μM) BACE2 Enzyme.
From the text: as §1
The target in test [4] is Cathepsin D (CatD) (Homo sapiens (Human), UniProt P07339). Put plainly: CatD assay. The format is biochemical. The following applies: read-out: IC50 IP (μM) CatD.
[5] abbreviates: read-out: IC50 IP (μM) BACE1 Cell.

The structures appear in SMILES notation.

BACE2, sequence (Q9Y5Z0 63-518): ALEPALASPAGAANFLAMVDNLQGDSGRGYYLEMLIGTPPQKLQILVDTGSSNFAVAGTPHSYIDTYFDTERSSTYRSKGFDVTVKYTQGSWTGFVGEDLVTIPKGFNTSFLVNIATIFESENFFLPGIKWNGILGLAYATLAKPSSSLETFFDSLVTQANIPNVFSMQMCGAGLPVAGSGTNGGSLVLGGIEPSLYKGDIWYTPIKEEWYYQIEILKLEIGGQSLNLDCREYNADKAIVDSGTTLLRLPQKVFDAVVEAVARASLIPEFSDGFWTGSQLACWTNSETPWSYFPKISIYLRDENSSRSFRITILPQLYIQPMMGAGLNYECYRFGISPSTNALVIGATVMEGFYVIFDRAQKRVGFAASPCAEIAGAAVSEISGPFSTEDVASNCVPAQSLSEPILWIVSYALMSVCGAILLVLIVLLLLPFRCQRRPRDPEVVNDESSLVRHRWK
Cathepsin D (CatD), sequence (P07339 65-412, species assumed): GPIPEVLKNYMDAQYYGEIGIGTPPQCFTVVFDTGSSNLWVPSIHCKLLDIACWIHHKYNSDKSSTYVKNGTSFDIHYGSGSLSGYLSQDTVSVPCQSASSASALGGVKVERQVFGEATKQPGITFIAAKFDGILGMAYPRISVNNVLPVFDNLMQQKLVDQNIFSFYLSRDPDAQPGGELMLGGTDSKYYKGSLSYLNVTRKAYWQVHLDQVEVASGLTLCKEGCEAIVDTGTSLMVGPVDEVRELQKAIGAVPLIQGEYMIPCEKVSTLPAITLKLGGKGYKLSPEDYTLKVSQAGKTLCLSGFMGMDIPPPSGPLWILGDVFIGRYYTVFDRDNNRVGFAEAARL

Regarding `C[C@]1(c2cc(/C=C(\F)c3ccc(C#N)cn3)ccc2F)N=C(N)S[C@@]2(C(N)=O)C[C@H]21` [Example 243, (1S,5S,6S)-3-amino-5-(5-((Z)-2-(5-cyanopyridin-2-yl)-2-fluorovinyl)-2-fluorophenyl)-5-methyl-2-thia-4-azabicyclo[4.1.0]hept-3-ene-1-carboxamide], the IC50 (commonly the concentration needed to halve the response being measured) was found to be 0.003 µM in test [1], 0.0022 µM in test [2], 0.043 µM in test [3] and 412 µM in test [4].
With `CC#CCOc1cnc(/C(F)=C/c2ccc(F)c([C@@]3(C)N=C(N)S[C@@]4(C#N)C[C@H]43)c2)cn1` [Example 244, (1S,5S,6S)-3-amino-5-(5-((Z)-2-(5-(but-2-yn-1-yloxy)pyrazin-2-yl)-2-fluorovinyl)-2-fluorophenyl)-5-methyl-2-thia-4-azabicyclo[4.1.0]hept-3-ene-1-carbonitrile], the IC50 in test [1] is 0.0004 µM; in test [2] (setting [5]), 0.0147 µM; in test [3] it was 0.055 µM; in test [4] it was 150 µM.
Take `C[C@]1(c2cc(/C=C(\F)c3ccc(C#N)cn3)ccc2F)N=C(N)S[C@@]2(C#N)C[C@H]21` [Example 245, (1S,5S,6S)-3-amino-5-(5-((Z)-2-(5-cyanopyridin-2-yl)-2-fluorovinyl)-2-fluorophenyl)-5-methyl-2-thia-4-azabicyclo[4.1.0]hept-3-ene-1-carbonitrile]: the IC50 in test [1] came to 0.005 µM; in test [2] (setting [5]) it was 0.0341 µM; in test [3], 0.057 µM; in test [4] it was 400 µM.
As to `CN(C)C(=O)[C@]12C[C@H]1[C@@](C)(c1cc(/C=C(\F)c3cn4cc(C#N)ccc4n3)ccc1F)N=C(N)S2` [Example 246, (1S,5S,6S)-3-amino-5-(5-((Z)-2-(6-cyanoimidazo[1,2-a]pyridin-2-yl)-2-fluorovinyl)-2-fluorophenyl)-N,N,5-trimethyl-2-thia-4-azabicyclo[4.1.0]hept-3-ene-1-carboxamide], the IC50 came to 0.171 µM in test [1], 0.05 µM in test [2] (setting [5]), 0.39 µM in test [3] and 53.1 µM in test [4].
Regarding `COC(=O)[C@]12C[C@H]1[C@@](C)(c1cc(/C=C(\F)c3ccc(Cl)cn3)cc(F)c1F)N=C(N)S2` [Example 248, (1S,5S,6S)-methyl 3-amino-5-(5-((Z)-2-(5-chloropyridin-2-yl)-2-fluorovinyl)-2,3-difluorophenyl)-5-methyl-2-thia-4-azabicyclo[4.1.0]hept-3-ene-1-carboxylate], the IC50 in test [1] was 0.0625 µM; in test [2], 1.59 µM; in test [3], 0.083 µM; in test [4], 200 µM.
On to `CN(C)C(=O)[C@]12C[C@H]1[C@@](C)(c1cc(/C=C(\F)c3ncc4c(n3)OCCO4)ccc1F)N=C(N)S2` [Example 250, (1S,5S,6S)-3-amino-5-(5-((Z)-2-(6,7-dihydro-[1,4]dioxino[2,3-d]pyrimidin-2-yl)-2-fluorovinyl)-2-fluorophenyl)-N,N,5-trimethyl-2-thia-4-azabicyclo[4.1.0]hept-3-ene-1-carboxamide], for which the IC50 in test [1] was found to be 0.029 µM; in test [2] (setting [5]) it was 0.017 µM; in test [3], 0.076 µM; in test [4], 368 µM.
The corresponding values for `C[C@]1(c2cc(/C=C(\F)c3ccc(C#N)cn3)ccc2F)N=C(N)S[C@]2(CO)[C@H]1C2(F)F` [Example 251, 6-((Z)-2-(3-((1S,5S,6R)-3-amino-7,7-difluoro-1-(hydroxymethyl)-5-methyl-2-thia-4-azabicyclo[4.1.0]hept-3-en-5-yl)-4-fluorophenyl)-1-fluorovinyl)nicotinonitrile] are 0.012 µM, 0.062 µM, 0.159 µM and 360 µM.
The like results for `C#CCOc1cnc(/C(F)=C/c2ccc(F)c([C@@]3(C)N=C(N)S[C@]4(CO)[C@H]3C4(F)F)c2)cn1` [Example 253, ((1S,5S,6R)-3-amino-7,7-difluoro-5-(2-fluoro-5-((Z)-2-fluoro-2-(5-(prop-2-yn-1-yloxy)pyrazin-2-yl)vinyl)phenyl)-5-methyl-2-thia-4-azabicyclo[4.1.0]hept-3-en-1-yl)methanol] were, in that order, 0.0054 µM, 0.0636 µM, 0.385 µM and 147 µM.
As to `C[C@]1(c2cc(/C=C(\F)c3ccc(Cl)cn3)ccc2F)N=C(N)S[C@]2(CO)[C@H]1C2(F)F` [Example 255, ((1S,5S,6R)-3-amino-5-(5-((Z)-2-(5-chloropyridin-2-yl)-2-fluorovinyl)-2-fluorophenyl)-7,7-difluoro-5-methyl-2-thia-4-azabicyclo[4.1.0]hept-3-en-1-yl)methanol], the IC50 in test [1] is 0.0477 µM; in test [2] it was 0.505 µM; in test [3], 0.056 µM; in test [4], 235 µM.
Take `C#C[C@H](C)Oc1cnc(/C(F)=C/c2ccc(F)c([C@@]3(C)N=C(N)S[C@@]4(COC)C[C@H]43)c2)cn1` [Example 264]: the IC50 in test [1] worked out at 0.003 µM; in test [2] (setting [5]) it was 0.026 µM; in test [3], 0.917 µM; in test [4] it was 363 µM.
Consider `COC[C@]12C[C@H]1[C@@](C)(c1cc(/C=C(\F)c3cnc(OCC(F)F)cn3)ccc1F)N=C(N)S2` [Example 266], for which the IC50 in test [1] was found to be 0.591 µM; in test [2] (setting [5]), 1.51 µM; in test [3], 1.58 µM; in test [4], 409 µM.
`COC[C@]12C[C@H]1[C@@](C)(c1cc(/C=C(\F)c3cnc(OCC(F)(F)F)cn3)ccc1F)N=C(N)S2` [Example 267]: the IC50 in test [1] is 0.112 µM; in test [2] (setting [5]) it was 0.559 µM; in test [3] it was 1.73 µM; in test [4], 209 µM.
For the molecule `COC[C@]12C[C@H]1[C@@](C)(c1cc(/C=C(\F)c3cnc(OCCF)cn3)ccc1F)N=C(N)S2` [Example 269], the IC50 came out at 0.839 µM in test [1], 1.66 µM in test [2] (setting [5]), 1.14 µM in test [3] and 329 µM in test [4].
For the molecule `COC[C@]12C[C@H]1[C@@](C)(c1cc(/C=C(\F)c3cnc(OCC4CC4)cn3)ccc1F)N=C(N)S2` [Example 270], the concentration for half-maximal inhibition (IC50) was determined as 0.659 µM in test [1], 5.12 µM in test [2] (setting [5]), 1.22 µM in test [3] and 211 µM in test [4].
On to `COC[C@]12C[C@H]1[C@@](C)(c1cc(/C=C(\F)c3cnc(OCC4COC4)cn3)ccc1F)N=C(N)S2` [Example 272], for which the IC50 in test [1] was 3.04 µM; in test [2] (setting [5]), 2.53 µM; in test [3], 4.02 µM; in test [4] it was 864 µM.
As for `COC[C@]12C[C@H]1[C@@](C)(c1cc(/C=C(\F)c3cnc(OCC(C)C)cn3)ccc1F)N=C(N)S2` [Example 274], the half-maximal inhibitory concentration (IC50) worked out at 1.9 µM in test [1], 4.26 µM in test [2] (setting [5]), 2.19 µM in test [3] and 181 µM in test [4].
For the molecule `COC[C@]12C[C@H]1[C@@](C)(c1cc(/C=C(\F)c3cnc(OCc4cc(C)on4)cn3)ccc1F)N=C(N)S2` [Example 275], the concentration for half-maximal inhibition (IC50) in test [1] was 0.248 µM; in test [2] (setting [5]), 2 µM; in test [3] it was 1.2 µM; in test [4], 144 µM.
Consider `C#CCOc1cnc(/C(F)=C/c2ccc(F)c([C@@]3(C)N=C(N)S[C@@]4(C(=O)N5[C@H]6COC[C@@H]5COC6)C[C@H]43)c2)cn1` [Example 279, ((1S,5S,6S)-3-amino-5-(2-fluoro-5-((Z)-2-fluoro-2-(5-(prop-2-yn-1-yloxy)pyrazin-2-yl)vinyl)phenyl)-5-methyl-2-thia-4-azabicyclo[4.1.0]hept-3-en-1-yl)((1R,5R)-3,7-dioxa-9-azabicyclo[3.3.1]nonan-9-yl)methanone], for which the IC50 in test [1] was found to be 0.0012 µM; in test [2] (setting [5]), 0.001 µM; in test [3], 0.176 µM; in test [4], 42 µM.
Turning to `C#CCOc1cnc(/C(F)=C/c2cnc(F)c([C@@]3(C)N=C(N)S[C@@]4(C(=O)N5CC[C@H](F)C5)C[C@H]43)c2)cn1` [Example 280, ((1S,5S,6S)-3-amino-5-(2-fluoro-5-((Z)-2-fluoro-2-(5-(prop-2-yn-1-yloxy)pyrazin-2-yl)vinyl)pyridin-3-yl)-5-methyl-2-thia-4-azabicyclo[4.1.0]hept-3-en-1-yl)((S)-3-fluoropyrrolidin-1-yl)methanone], the half-inhibitory concentration (IC50) in test [1] is 0.0013 µM; in test [2] (setting [5]) it was 0.0016 µM; in test [3], 0.119 µM; in test [4], 115 µM.
As to `C[C@]1(c2cc(/C=C(\F)c3ccc(C#N)cn3)cnc2F)N=C(N)S[C@@]2(C(=O)NCC(F)F)C[C@H]21` [Example 281, (1S,5S,6S)-3-amino-5-(5-((Z)-2-(5-cyanopyridin-2-yl)-2-fluorovinyl)-2-fluoropyridin-3-yl)-N-(2,2-difluoroethyl)-5-methyl-2-thia-4-azabicyclo[4.1.0]hept-3-ene-1-carboxamide], the IC50 in test [1] worked out at 0.0214 µM; in test [2], 0.0542 µM; in test [3], 0.164 µM; in test [4], 269 µM.
For `C#CCOc1cnc(/C(F)=C/c2cnc(F)c([C@@]3(C)N=C(N)S[C@@]4(C(=O)N(C)C)C[C@H]43)c2)cn1` [Example 287, (1S,5S,6S)-3-amino-5-(2-fluoro-5-((Z)-2-fluoro-2-(5-(prop-2-yn-1-yloxy)pyrazin-2-yl)vinyl)pyridin-3-yl)-N,N,5-trimethyl-2-thia-4-azabicyclo[4.1.0]hept-3-ene-1-carboxamide], the 50% inhibitory concentration (IC50) in test [1] was found to be 0.0019 µM; in test [2] (setting [5]), 0.0022 µM; in test [3], 0.04 µM; in test [4] it was 206 µM.
`CC#CCOc1cnc(/C(F)=C/c2cnc(F)c([C@@]3(C)N=C(N)S[C@@]4(C(=O)N(C)C)C[C@H]43)c2)cn1` [Example 289, (1S,5S,6S)-3-amino-5-(5-((Z)-2-(5-(but-2-yn-1-yloxy)pyrazin-2-yl)-2-fluorovinyl)-2-fluoropyridin-3-yl)-N,N,5-trimethyl-2-thia-4-azabicyclo[4.1.0]hept-3-ene-1-carboxamide]: the IC50 came out at 0.0008 µM in test [1], 0.002 µM in test [2] (setting [5]), 0.022 µM in test [3] and 227 µM in test [4].
